# Source: patent publication US10722484B2, “Methods of cancer treatment” (K-Gen, Inc., priority 2016, dated 2020)
# Where two headings read alike, the source gives them in different places.
# Legend:
# [1] = system: leukemia inhibitory factor (LIF); assay: Western blot analysis of PKC signaling pathway elements in A549 cells; format: cell-based
# Description: (§1) Cancer cells (2-8 million cells) were seeded in 10 cm dishes and grown overnight. For A549 lung cancer cell line, about 3 million cells were seeded. Cells were then treated with different drugs at concentrations described in Table 8 for a period of time up to 48 hours. Cells were lysed in 0.3-0.5 mL of RIPA buffer (Sigma) supplemented with protease inhibitors (Roche) and phosphatase inhibitors (Sigma). Lysates were assayed for protein concentration using BCA kit (Pierce). Normalized amount of lysates (20-30 μg protein/lane) were run on 4-12% NuPage gel (Life Technologies) and the proteins were transferred to the PVDF or nitrocellulose membrane using iBlot® Transfer Stack (Life Technologies). The membranes were probed with primary antibodies shown in Table 9 at 4° C. overnight after blocking with 1×TBST containing 5% non-fat milk. Antibodies from other vendors could also be used in Western blot analysis. After washing 5 times with 1×TBS containing 0.1% Tween20, the membranes were probed with 2nd antibodies Anti-mouse IgG Dylight 800 conjugate or Anti-rabbit IgG DyLight 680 conjugate (1:10000; Cell signaling or similar IR 2nd antibodies from different vendors) at room temperature for one hour. After washing 5 times, the membranes were scanned using Odyssey® Imaging System (Licor Biosciences).
# [2] = system: phospho-PKC (pan); assay: as above; format: cell-based
# Description: as §1
# [3] = system: H727; assay: Proliferation assay (CellTiter Glo); format: cell-based; conditions: 96 hours; for EC50: Homo sapiens, NCI-H727
# Description: (§2) The dose range for most compounds was 4.6 nM-30 μM. The dose ranges for some compounds were adjusted downward to 0.46 nM-3 μM or 0.08 nM-0.5 μM or 0.03 nM-0.2 μM. […] The results are shown in Tables 3-6 for pancreatic cancer, lung cancer, colon/gastric cancer, and leukemia.
# [4] = system: A549; assay: Proliferation assay (CellTiter Glo); format: cell-based; conditions: 96 hours; for EC50: Homo sapiens
# Description: as §2
# [5] = system: H358; assay: Proliferation assay (CellTiter Glo); format: cell-based; conditions: HE58, 96 hours; for EC50: Homo sapiens, NCI-H358
# Description: as §2
# [6] = system: HCT116; assay: Proliferation assay (CellTiter Glo); format: cell-based; conditions: 96 hours
# Description: as §2
# [7] = system: CCRF-CEM; assay: Proliferation assay (CellTiter Glo); format: cell-based; conditions: 96 hours; for EC50: Homo sapiens
# Description: as §2
# [8] = system: Pan2.13; assay: Proliferation assay (CellTiter Glo); format: cell-based; conditions: 96 hours
# Description: as §2
# [9] = system: KP-4; assay: Proliferation assay (CellTiter Glo); format: cell-based; conditions: 96 hours; for EC50: Homo sapiens
# Description: as §2
# [10] = system: H441; assay: Proliferation assay (CellTiter Glo); format: cell-based; conditions: 96 hours; for EC50: Homo sapiens, NCI-H441
# Description: as §2
# [11] = system: LS180; assay: Proliferation assay (CellTiter Glo); format: cell-based; conditions: 96 hours
# Description: as §2
# [12] = system: SW620; assay: Proliferation assay (CellTiter Glo); format: cell-based; conditions: 96 hours
# Description: as §2
# [13] = system: AsPC-1; assay: Proliferation assay (CellTiter Glo); format: cell-based; conditions: 96 hours; for EC50: Homo sapiens, ASPC1
# Description: as §2
# [14] = system: THP1; assay: Proliferation assay (CellTiter Glo); format: cell-based, human; conditions: 96 hours; for EC50: Homo sapiens, THP-1
# Description: as §2
# [15] = system: HL60; assay: Proliferation assay (CellTiter Glo); format: cell-based, human; conditions: 96 hours; for EC50: Homo sapiens, HL-60
# Description: as §2
# [16] = system: A549 cells; assay: Soft agar colony formation assay; format: cell-based; conditions: 7-10 days, 9-point 3-fold dilution series
# Description: To prepare a base agar layer (0.6%), melted 1.2% agar solution was mixed 1:1 (v/v) with 2×DMEM/20% FBS medium in a tube by inverting several times, and 50 μL of the mixture was immediately transferred to a well in a 96-well flat-bottom microplate. The plate was placed at 4° C. for 30 minutes to allow the base agar layer to solidify. Then, the cell agar layer (agar 0.4%) was prepared by transferring 75 μL of the cell and agar mixture containing 1:1:1 (v/v/v) of 1.2% agar solution, 2×DMEM/20% FBS and cell suspension (0.4-4×10E5/mL) to each well of the plates so that each well contained 1000-10000 cells per well. The plates were placed at 4° C. for 15 minutes and then 75 μL of media was added to each well. After incubating the plates overnight in a CO2 incubator, 50 μL of media with or without 5× final concentrations of compounds were added to each well. Each compound was tested in 9-point 3-fold dilution series. The plates were incubated for 7-10 days at 37° C. At the end of incubation period, 28 μL of Calcein AM solution (5 μM) was added to the center of each well. The plates were incubated at 37° C. for 45 minutes before scanning on Acumen (TTP Labtech). Each compound was tested in triplicates. Data was analyzed and compound EC50s were calculated using GraphPad Prism 5.
smiles,measurement,setting,value
"CC(=O)O[C@@]12C[C@@H](C)[C@@]3(O)[C@@H](C=C(CO)C[C@]4(O)C(=O)C(C)=C[C@@H]34)[C@@H]1C2(C)C [Compound K101A, 12-deoxyphorbol 13-acetate]",LIF protein level,[1]; 0.5 μM,lowered
same,protein levels of the leukemia inhibitory factor (LIF),"[1]; Western blot, concentrations of Table 8 (K101A 0.1, 0.5, […]; K101E […]; K102 0.1, 0.5 μM; K103 0.01 μM; Ref1 1 μM; Ref2 0.01 μM)",dose-dependent reduction
same,phospho-PKC (pan) level,[2]; 0.5 μM,without affecting
same,phospho-PKC (pan) levels,"[2]; 48 hours, K103, K102 at 0.5 μM, K101A at […]",reduction
same,Top Inhibition %,"[3]; H727, % of top inhibition",48.3%
same,EC50,"[3]; H727 (K-RAS: G12V), absolute EC50, read-out: Ab EC50",> 30000 nM
same,EC50,"[3]; H727, relative EC50, read-out: Re EC50",190 nM
same,Top Inhibition %,"[4]; A549, % of top inhibition",76.0%
same,EC50,"[4]; A549 (K-RAS: G12S), absolute EC50, read-out: Ab EC50",490 nM
same,EC50,"[4]; A549, relative EC50, read-out: Re EC50",270 nM
same,Top Inhibition %,[5]; % of top inhibition,56.4%
same,EC50,"[5]; absolute EC50, read-out: Ab EC50",4900 nM
same,EC50,"[5]; relative EC50, read-out: Re EC50",160 nM
same,Top Inhibition %,"[6]; HCT116, % of top inhibition",17.4%
same,EC50,"[6]; Homo sapiens, HCT-116, HCT116 (K-RAS: G13D), absolute EC50, read-out: Ab EC50",> 30000 nM
same,Top Inhibition %,"[7]; CCRF-CEM, % of top inhibition",35.9%
same,EC50,"[7]; CCRF-CEM (K-RAS: G12D), absolute EC50, read-out: Ab EC50",> 30000 nM
same,EC50,"[7]; CCRF-CEM, relative EC50, read-out: Re EC50",51 nM
same,EC50,"[8]; Pan2.13 (K-RAS: Q61H), absolute EC50, read-out: Ab EC50",> 30000 nM
same,Top Inhibition %,"[8]; Pan2.13, % of top inhibition",43.4%
same,EC50,"[8]; Pan2.13, relative EC50, read-out: Re EC50",17 nM
same,EC50,"[9]; KP-4 (K-RAS: G12C), absolute EC50, read-out: Ab EC50",400 nM
same,EC50,"[9]; KP-4, relative EC50, read-out: Re EC50",190 nM
same,Top Inhibition %,"[9]; KP-4, % of top inhibition",63.3%
same,Top Inhibition %,"[10]; H441, % of top inhibition",42.1%
same,EC50,"[10]; H441 (K-RAS: G12V), absolute EC50, read-out: Ab EC50",> 30000 nM
same,EC50,"[10]; H441, relative EC50, read-out: Re EC50",320 nM
same,EC50,"[11]; Homo sapiens, LS180 (K-RAS: G12D), absolute EC50, read-out: Ab EC50",> 30000 nM
same,Top Inhibition %,"[11]; LS180, % of top inhibition",4.4%
same,EC50,"[12]; Homo sapiens, SW-620, SW620 (K-RAS: G12V), absolute EC50, read-out: Ab EC50",> 30000 nM
same,Top Inhibition %,"[12]; SW620, % of top inhibition",0.0%
same,Top Inhibition %,"[13]; AsPC-1, % of top inhibition",32.4%
same,EC50,"[13]; AsPC-1 (K-RAS: G12D), absolute EC50, read-out: Ab EC50",> 30000 nM
same,EC50,"[13]; AsPC-1, relative EC50, read-out: Re EC50",270 nM
same,EC50,"[14]; THP1 (N-RAS: G12D), absolute EC50, read-out: Ab EC50",870 nM
same,EC50,"[14]; THP1, relative EC50, read-out: Re EC50",300 nM
same,Top Inhibition %,"[14]; THP1, % of top inhibition",51.8%
same,Top Inhibition %,"[15]; HL60, % of top inhibition",61.3%
same,EC50,"[15]; HL60 (N-RAS: Q61L), absolute EC50, read-out: Ab EC50",470 nM
same,EC50,"[15]; HL60, relative EC50, read-out: Re EC50",400 nM
same,number of colonies formed in soft agar,[16],reduced the number of colonies formed by A549 cells in a dose-dependent manner
